Assay results as given in patent US20090143279A1 (priority 2007, published 2009).
Where two headings read alike, the source gives them in different places.

Legend:
[1] = test system: mtOXPHOS transcripts; type: cell-based, mouse
[2] = test system: mt-Co1; assay: Real-time PCR of mt-Co1 (mtOXPHOS) expression; type: cell-based, mouse; settings: 1 μM, FIG. 8c
Excerpt: (§1) FIG. 8 show measurements of the coupling between nuclear and mitochondrial OXPHOS gene expression. (a) A two-dimensional plot of the composite Z-scores for nuOXPHOS and mtOXPHOS expression is shown. (b) Row-normalized heat map displaying the top 15 compounds in each quadrant (I-IV). Heat map of nuOXPHOS and mtOXPHOS expression is shown along with ATP levels. (c) Real-time PCR validation of select compounds at the indicated doses, using Atp5a1 (nuOXPHOS) and mt-Co1 (mtOXPHOS) normalized to Hprt1 (internal control). Values indicate average fold change from mock-treated (DMSO) wells ±s.d. in four biological replicates.
(§2) Gene expression. […]. The cDNA was then used for real-time PCR quantification of products for mouse Atp5a1 (Mm00431960_ml), Sod2 (MnSOD; Mm01313000_m1) and Ppargc1a (Mm00447183_m1), with Hprt1 (Mm03024075_m1) serving as an internal control, using TaqMan gene-expression assays (Applied Biosystems).

[3] = test system: nuOXPHOS transcripts; type: cell-based, mouse
[4] = test system: OXPHOS gene expression; type: cell-based, mouse; settings: for OXPHOS expression: primary screen, in words
[5] = test system: reactive oxygen species; type: cell-based, mouse; settings: for ROS levels: primary screen, in words
[6] = test system: C2C12 myotubes
[7] = test system: mitochondrial membrane potential; type: cell-based, mouse
[8] = test system: cellular dehydrogenase activity
[9] = test system: cytochrome c; type: cell-based, mouse
[10] = test system: Atp5a1; assay: Quantitative PCR of Atp5a1 (nuOXPHOS) expression; type: cell-based, mouse; settings: for increase of Atp5a1 expression: compound alone, FIG. 6d
Method: (§3) (a) Compounds indicated in FIG. 4 were retested at 20 nM, 200 nM, 2 μM and 20 μM. Gene expression levels are represented as a row-normalized heat map, with negative controls (DMSO treatment) and positive controls (PGC-1α treatment) shown. Dose-response curves for ROS levels and viability are also provided, where the y-axis is the composite Z-score. Shaded area indicates the noise envelope (P<0.05). Data shown are the results of four biological replicates per concentration. […] (c) Quantitative PCR measurement of Ppargc1a gene expression, in response to either DMSO alone (Con), 5 μM deoxysappanone B (deo) or 1 μM mebendazole (meb). (d) Quantitative PCR measurement of the nuclear OXPHOS gene Atp5a1. Cells were either treated with compound alone (black bars) or in combination with […] of the ERRa inverse agonist XCT790 (gray bars). (e) Quantitative PCR measurement of Sod2, which encodes the ROS scavenger MnSOD, as in (d). Means and s.d. of expression data are the result of four biological replicates.
as §1, §2

[11] = test system: Sod2; assay: Quantitative PCR of Sod2 (MnSOD) expression; type: cell-based, mouse; settings: in combination with compound, FIG. 6e
Method: as §3, §2

[12] = test system: Ppargc1a; assay: Quantitative PCR of Ppargc1a expression; type: cell-based, mouse; settings: 5 μM deoxysappanone B or 1 μM mebendazole, FIG. 6c
Method: as §3, §2

[13] = test system: microtubules; assay: Tubulin immunofluorescence; type: cell-based, mouse; settings: C2C12 myotubes, 48 hours, 10 nM to 10 μM, FIG. 7
Method: Tubulin immunofluorescence. […] Cells were washed once in 50 μl PBSTB2 (PBS with 0.1% (vol/vol) Tween-20 and 2% (wt/vol) BSA) and blocked in PBSTB2 for 1 h at room temperature or overnight at 4° C. Cells were incubated with an anti-α-tubulin (Sigma-Aldrich) antibody, 1:1,000 in PBSTB2, for 1 h at room temperature, and then washed three times with PBSTB2. […] Cells were visualized using an automated microscope (IX-Micro, Molecular Devices).

[14] = composite Z-score vs DMSO, Conc 14.22 μM
[15] = composite Z-score vs DMSO, Conc 20 μM
[16] = Table 7, C2C12 myotubes, 48 h, composite Z-score
[17] = normalized composite Z-score vs mock-treated (DMSO) wells, Conc 20 μM
[18] = Table 3, differentiated C2C12 myotubes, 48 h treatment, composite Z-score vs DMSO
[19] = Table 6, C2C12 myotubes, 48 h, composite Z-score
[20] = retest at 20 nM to 20 μM, FIG. 6a
[21] = 13.54 μM, composite Z-score vs DMSO
[22] = 20 μM, composite Z-score vs DMSO

C[C@@H]1C[C@@H]([C@H](O)CC2CC(=O)NC(=O)C2)C(=O)[C@@H](C)C1 [Cycloheximide, reference compound]
mitoOX [1, 14]: −4.179
mitoOX [1, 15]: −5.637
mtOXPHOS decreased [2]: 2.4 fold
nucOX [3, 14]: 1.354
nucOX [3, 15]: 0.688
nuOXPHOS expression ([3]; screen, relative to mtOXPHOS, in words): preferentially increase
GE-HTS [4, 14]: −0.504
GE-HTS [4, 15]: −1.482
ROS [5, 14]: −3.415
ROS [5, 15]: −2.628
Viability [6, 14]: −2.540
Viability [6, 15]: −2.804
ΔΨm [7, 14]: 2.318
ΔΨm [7, 15]: 2.759
MTT [8, 14]: −3.550
MTT [8, 15]: −3.499
cyt c [9, 14]: −1.378
cyt c [9, 15]: −2.123
nuOXPHOS elevated ([10]; 1 μM, real-time PCR, FIG. 8c): 1.3 fold

COc1cc(/C=C(\C#N)C(=O)Nc2nnc(C(F)(F)F)s2)ccc1OCc1ccc(C(F)(F)F)cc1C(F)(F)F [XCT790]
effect of XCT790 on compound-induced MnSOD increase [11]: suppressible
effect of XCT790 on compound-induced Atp5a1 increase ([10]; in combination with mebendazole or deoxysappanone B, 5 mM XCT790, FIG. 6d): completely inhibited

COc1ccc2c(c1)OCC(Cc1ccc(O)c(OC)c1)C2=O (centres unmarked) [deoxysappanone b 7,3′-dimethyl ether, reference compound]
mito-OXPHOS Z [1, 16]: 1.38
mitoOX [1, 17]: 1.383
expression of Ppargc1α [12]: approximately threefold
nucOXPHOS Z [3, 16]: 2.25
nucOX [3, 17]: 2.250
GEHTS_Zscore [4, 18]: 2.577
GEHTS_Zscore [4, 19]: 2.577
GE-HTS [4, 17]: 2.118
dose at which OXPHOS expression increased [4, 20]: 2 µM
ROS Zscore [5, 18]: −1.712
ROS Zscore [5, 19]: −1.712
ROS [5, 17]: −1.712
dose at which ROS levels decreased [5, 20]: 2 µM
Viability [6, 17]: −1.120
ΔΨm [7, 17]: −0.637
MTT [8, 17]: −2.870
cyt c [9, 17]: −0.951
potency required for microtubule disruption [13]: the same as that required to affect OXPHOS expression and ROS level
increase of Atp5a1 expression [10]: 20%

COC(=O)Nc1nc2ccc(C(=O)c3ccccc3)cc2[nH]1 [mebendazole, methyl[5-benzoyl-benzimidazol-2-carbamate], reference compound]
mitoOX [1, 21]: 0.398
mitoOX [1, 22]: 0.824
expression of Ppargc1α [12]: approximately threefold
nucOX [3, 21]: −0.200
nucOX [3, 22]: 1.212
GE-HTS [4, 21]: 0.013
GE-HTS [4, 22]: 1.160
GEHTS_Zscore [4, 18]: 2.846
OXPHOS expression [4]: boost OXPHOS expression
dose at which OXPHOS expression increased [4, 20]: 2 µM
ROS [5, 21]: −0.791
ROS [5, 22]: −1.003
ROS Zscore [5, 18]: −1.003
ROS levels [5]: suppressing ROS levels
dose at which ROS levels decreased [5, 20]: 2 µM
Viability [6, 21]: 0.064
Viability [6, 22]: 0.512
ΔΨm [7, 21]: −0.054
ΔΨm [7, 22]: −0.434
MTT [8, 21]: −2.797
MTT [8, 22]: −2.060
cyt c [9, 21]: −0.685
cyt c [9, 22]: −1.473
increase of Atp5a1 expression [10]: 20%

CC(=O)O[C@H]1C(=O)[C@@]2(C)[C@H]([C@H](OC(=O)c3ccccc3)[C@]3(O)C[C@H](OC(=O)[C@H](O)[C@@H](NC(=O)c4ccccc4)c4ccccc4)C(C)=C1C3(C)C)[C@]1(OC(C)=O)CO[C@@H]1C[C@@H]2O [paclitaxel, reference compound]
GEHTS_Zscore [4, 18]: 2.451
OXPHOS expression [4]: boost OXPHOS expression
dose showing effect on OXPHOS expression [4, 20]: 20 nM
ROS Zscore [5, 18]: −1.967
ROS levels [5]: suppressing ROS levels
dose showing effect on ROS level [5, 20]: 20 nM
potency required for microtubule disruption [13]: the same as that required to affect OXPHOS expression and ROS level
